One test deals with T1, human OX1 receptor (Homo sapiens, UniProt O43613).
T1 construct: expressed in transfected cells; host or cells: CHO cells
T1 sequence (O43613 1-425): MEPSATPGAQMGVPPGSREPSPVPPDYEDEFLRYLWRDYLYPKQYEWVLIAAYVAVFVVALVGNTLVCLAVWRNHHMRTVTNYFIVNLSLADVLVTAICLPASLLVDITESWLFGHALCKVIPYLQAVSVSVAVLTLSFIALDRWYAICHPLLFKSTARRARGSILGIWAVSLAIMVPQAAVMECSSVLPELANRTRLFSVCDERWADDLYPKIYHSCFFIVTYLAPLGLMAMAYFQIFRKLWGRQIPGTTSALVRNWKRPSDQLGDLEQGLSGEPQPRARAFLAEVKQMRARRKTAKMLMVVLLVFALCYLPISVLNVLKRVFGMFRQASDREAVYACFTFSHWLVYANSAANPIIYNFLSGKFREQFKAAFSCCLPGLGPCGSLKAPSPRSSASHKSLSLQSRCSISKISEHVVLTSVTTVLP
The test can be described thus: Measurement of orexin receptor antagonistic activity (calcium fluorescence, FLIPRtetra). It is filed as cell-based. Particulars: for inhibition at 10 µM: CHO, read-out: Human Orexin1 receptor inhibition (at 10 μM). The method, boiled down:
(§1)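 CHO cells expressing human OX1 or OX2 receptor, cultured one day. Compound in HBSS/20 mM HEPES/0.1% BSA added, then orexin-A at 1 nM final (OX1) or 0.3 nM final (OX2); calcium fluorescence by FLIPRtetra every 1 s for 2 min.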

Another test deals with T2, human OX2 receptor (Homo sapiens, UniProt O43614).
T2 construct: expressed in transfected cells; host or cells: CHO cells
T2 sequence (O43614 1-444): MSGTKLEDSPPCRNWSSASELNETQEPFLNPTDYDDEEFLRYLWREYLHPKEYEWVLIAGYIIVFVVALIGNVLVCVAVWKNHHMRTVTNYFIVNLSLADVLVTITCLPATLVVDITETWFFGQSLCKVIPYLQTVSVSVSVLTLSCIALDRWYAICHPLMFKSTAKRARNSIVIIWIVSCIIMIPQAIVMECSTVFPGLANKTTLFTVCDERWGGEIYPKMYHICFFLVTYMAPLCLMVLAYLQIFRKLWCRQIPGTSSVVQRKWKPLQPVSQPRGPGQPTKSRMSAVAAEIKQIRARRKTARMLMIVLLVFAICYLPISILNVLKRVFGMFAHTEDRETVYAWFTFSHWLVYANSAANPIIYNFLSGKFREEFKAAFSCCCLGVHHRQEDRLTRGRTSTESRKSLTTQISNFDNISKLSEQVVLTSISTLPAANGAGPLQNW
The test is described as above. The class given is cell-based. The settings on record: for inhibition at 10 µM: CHO, read-out: Human Orexin2 receptor inhibition (at 10 μM). Put shortly:
as §1

Where [1] appears, read: 10 μM test compound, CHO cells expressing human OX1 receptor, OX-A 1 nM.
Where [2] appears, read: 10 μM test compound, CHO cells expressing human OX2 receptor, OX-A 0.3 nM.

The structures appear in SMILES notation. Where a name gives a salt, the structure may show the parent alone. Read-outs that look alike come from different tables or passages of the source.

For the compound `C[C@@H]1CON(c2ncc(F)c(O)n2)CCN1C(=O)c1ccccc1-n1nccn1` [Example 149, ((6R)-2-(5-fluoro-4-hydroxypyrimidin-2-yl)-6-methyl-1,2,5-oxadiazepan-5-yl) (2-(2H-1,2,3-triazol-2-yl)phenyl)methanone], the inhibition at 10 µM at human OX1 receptor (setting [1]) was 3%; on human OX2 receptor (setting [2]), -6%.

Consider `Cc1cc(C)nc(N2CCN(C(=O)c3cccc(C#N)c3)CCO2)n1` [Example 49, 3-((2-(4,6-dimethylpyrimidin-2-yl)-1,2,5-oxadiazepan-5-yl)carbonyl) benzonitrile], for which the inhibition at 10 µM was found to be 9% at human OX1 receptor (setting [1]) and 14% on human OX2 receptor (setting [2]).

For `Cc1cc(C)nc(N2CCN(C(=O)c3ccc(C#N)cc3)CCO2)n1` [Example 50, 4-((2-(4,6-dimethylpyrimidin-2-yl)-1,2,5-oxadiazepan-5-yl)carbonyl) benzonitrile], the inhibition at 10 µM on human OX1 receptor (setting [1]) is 3%; at human OX2 receptor (setting [2]) it was -3%.

Regarding `Cc1ccc(-n2nccn2)c(C(=O)N2CCN(c3cc(C)nc(C)c3)OC[C@H]2C)c1` [Example 143, ((6R)-2-(2,6-dimethylpyridin-4-yl)-6-methyl-1,2,5-oxadiazepan-5-yl) (5-methyl-2-(2H-1,2,3-triazol-2-yl)phenyl)methanone], the inhibition at 10 µM on human OX1 receptor came out at 1%; at human OX2 receptor, 44%.

Consider `COc1cccc(N2CCN(C(=O)c3ccccc3-c3nccs3)CCO2)n1` [Example 36, (2-(6-methoxypyridin-2-yl)-1,2,5-oxadiazepan-5-yl)(2-(1,3-thiazol-2-yl)phenyl)methanone], for which the inhibition at 10 µM came out at 67% on human OX1 receptor (setting [1]) and 100% at human OX2 receptor (setting [2]).

Take `Cc1cc(N2CCN(C(=O)c3cc(F)ccc3-c3nccs3)C[C@H](C)O2)nc(C)n1` [Example 87, ((7S)-2-(2,6-dimethylpyrimidin-4-yl)-7-methyl-1,2,5-oxadiazepan-5-yl)(5-fluoro-2-(1,3-thiazol-2-yl)phenyl)methanone hydrochloride]: the inhibition at 10 µM on human OX1 receptor (setting [1]) turned out to be 81%; on human OX2 receptor (setting [2]), 102%.

`Cc1cc(N2CCN(C(=O)c3cc(Cl)ccc3-n3nccn3)CC(C)O2)nc(C)n1` (stereo in doubt) [Example 212, (5-chloro-2-(2H-1,2,3-triazol-2-yl)phenyl)((7R)-2-(2,6-dimethylpyrimidin-4-yl)-7-methyl-1,2,5-oxadiazepan-5-yl)methanone]: the “Human Orexin1 receptor inhibition (at 10 μM)” value at human OX1 receptor (setting [1]) was 16%. Besides, the “Human Orexin2 receptor inhibition (at 10 μM)” value on human OX2 receptor (setting [2]) is 99%.

On to `Cc1cc(N2CCN(C(=O)c3cc(Cl)ccc3-c3ncc(F)cn3)[C@H](C)CO2)nc(C)n1` [Example 221, (5-chloro-2-(5-fluoropyrimidin-2-yl)phenyl)((6R)-2-(2,6-dimethylpyrimidin-4-yl)-6-methyl-1,2,5-oxadiazepan-5-yl)methanone], for which the results for the inhibition at 10 µM on human OX1 receptor (setting [1]) and on human OX2 receptor (setting [2]) were 51% and 102%, respectively.

On to `Cc1cc(N2CCN(C(=O)c3ccccc3-c3cccs3)CCO2)nc(C)n1` [Example 23, (2-(2,6-dimethylpyrimidin-4-yl)-1,2,5-oxadiazepan-5-yl) (2-(2-thienyl)phenyl)methanone hydrochloride], for which the inhibition at 10 µM on human OX1 receptor (setting [1]) is 88%; at human OX2 receptor (setting [2]), 101%.

With `Cc1cc(N2CCN(C(=O)c3cc(Cl)ccc3-c3ncccn3)C[C@H](C)O2)nc(C)n1` [Example 197, (5-chloro-2-(pyrimidin-2-yl)phenyl)((7S)-2-(2,6-dimethylpyrimidin-4-yl)-7-methyl-1,2,5-oxadiazepan-5-yl)methanone], the inhibition at 10 µM on human OX1 receptor (setting [1]) was 96%; at human OX2 receptor (setting [2]) it was 102%.

As for `Cc1cc(C)nc(N2CCN(C(=O)c3cccc(Cl)c3Cl)CCO2)n1` [Example 55, (2,3-dichlorophenyl) (2-(4,6-dimethylpyrimidin-2-yl)-1,2,5-oxadiazepan-5-yl)methanone], the inhibition at 10 µM at human OX1 receptor (setting [1]) turned out to be 18%; at human OX2 receptor (setting [2]) it was 96%.

In the case of `Cc1ccc(-n2nccn2)c(C(=O)N2CCN(c3ccnc(C)c3)OC[C@H]2C)c1` [Example 144, ((6R)-6-methyl-2-(2-methylpyridin-4-yl)-1,2,5-oxadiazepan-5-yl) (5-methyl-2-(2H-1,2,3-triazol-2-yl)phenyl)methanone], the inhibition at 10 µM on human OX1 receptor is 14%; at human OX2 receptor it was 12%.

As for `Cc1ncc(Cl)c(N2CCN(C(=O)c3cc(Cl)ccc3-c3ncccn3)[C@H](C)CO2)n1` [Example 230, ((6R)-2-(5-chloro-2-methylpyrimidin-4-yl)-6-methyl-1,2,5-oxadiazepan-5-yl)(5-chloro-2-(pyrimidin-2-yl)phenyl)methanone], the inhibition at 10 µM came out at 66% on human OX1 receptor (setting [1]) and 103% at human OX2 receptor (setting [2]).

Regarding `Cc1ccc(-n2nccn2)c(C(=O)N2CCN(c3nc(C)cc(C)n3)OC[C@H]2C)c1` [Example 114, ((6R)-2-(4,6-dimethylpyrimidin-2-yl)-6-methyl-1,2,5-oxadiazepan-5-yl) (5-methyl-2-(2H-1,2,3-triazol-2-yl)phenyl)methanone], the inhibition at 10 µM on human OX1 receptor (setting [1]) is 69%; at human OX2 receptor (setting [2]), 96%.

Take `Cc1nc(N2CCN(C(=O)c3cc(F)ccc3-n3nccn3)[C@H](C)CO2)nc(C)c1F` [Example 166, ((6R)-2-(5-fluoro-4,6-dimethylpyrimidin-2-yl)-6-methyl-1,2,5-oxadiazepan-5yl)(5-fluoro-2-(2H-1,2,3-triazol-2-yl)phenyl)methanone]: the results for the inhibition at 10 µM at human OX1 receptor (setting [1]) and on human OX2 receptor (setting [2]) were 81% and 97%, respectively.

Turning to `Cc1cc(C)nc(N2CCN(C(=O)c3ccccc3Cl)CCO2)n1` [Example 53, (2-chlorophenyl) (2-(4,6-dimethylpyrimidin-2-yl)-1,2,5-oxadiazepan-5-yl)methanone], the inhibition at 10 µM came to 9% at human OX1 receptor (setting [1]) and 57% at human OX2 receptor (setting [2]).

In the case of `Cc1cc(N2CCN(C(=O)c3ccc(Cl)cc3-n3ccnn3)C[C@H](C)O2)nc(C)n1` [Example 211, (4-chloro-2-(1H-1,2,3-triazol-1-yl)phenyl)((7S)-2-(2,6-dimethylpyrimidin-4-yl)-7-methyl-1,2,5-oxadiazepan-5-yl)methanone], the inhibition at 10 µM is 21% at human OX1 receptor (setting [1]) and 80% at human OX2 receptor (setting [2]).

For `Cc1cc(N2CCN(C(=O)c3ccccc3C#N)C[C@H](C)O2)nc(C)n1` [Example 209, 2-(((7S)-2-(2,6-dimethylpyrimidin-4-yl)-7-methyl-1,2,5-oxadiazepan-5-yl)carbonyl)benzonitrile], the inhibition at 10 µM on human OX1 receptor (setting [1]) was -12%; on human OX2 receptor (setting [2]) it was 18%.

As for `Cc1nc(N2CCN(C(=O)c3cc(Cl)ccc3-c3ncccn3)CCO2)cc(C(F)(F)F)n1` [Example 225, (5-chloro-2-(pyrimidin-2-yl)phenyl)(2-(2-methyl-6-(trifluoromethyl)pyrimidin-4-yl)-1,2,5-oxadiazepan-5-yl)methanone], the inhibition at 10 µM at human OX1 receptor (setting [1]) was 74%; at human OX2 receptor (setting [2]) it was 103%.

For `C[C@@H]1CON(c2cc(C3CC3)ncn2)CCN1C(=O)c1ccccc1-n1nccn1` [Example 150, ((6R)-2-(6-cyclopropylpyrimidin-4-yl)-6-methyl-1,2,5-oxadiazepan-5-yl) (2-(2H-1,2,3-triazol-2-yl)phenyl)methanone], the inhibition at 10 µM on human OX1 receptor (setting [1]) came out at 58%; on human OX2 receptor (setting [2]) it was 99%.

In the case of `Cc1ccc(-n2nccn2)c(C(=O)N2CCN(c3nc(C)cnc3C)OC[C@H]2C)c1` [Example 129, ((6R)-2-(3,6-dimethylpyrazin-2-yl)-6-methyl-1,2,5-oxadiazepan-5-yl) (5-methyl-2-(2H-1,2,3-triazol-2-yl)phenyl)methanone], the figures for the inhibition at 10 µM at human OX1 receptor (setting [1]) and at human OX2 receptor (setting [2]) were 38% and 86%, respectively.

As for `C[C@@H]1CON(c2ncnc3ccn(C)c23)CCN1C(=O)c1cc(F)ccc1-n1nccn1` [Example 165, (5-fluoro-2-(2H-1,2,3-triazol-2-yl)phenyl)((6R)-6-methyl-2-(5-methyl-5H-pyrrolo[3,2-d]pyrimidin-4-yl)-1,2,5-oxadiazepan-5-yl)methanone], the inhibition at 10 µM on human OX1 receptor (setting [1]) and at human OX2 receptor (setting [2]) was 24% throughout.

In the case of `Cc1ccc(-n2nccn2)c(C(=O)N2CCN(c3cncc(Cl)c3)OC[C@H]2C)c1` [Example 133, ((6R)-2-(5-chloropyridin-3-yl)-6-methyl-1,2,5-oxadiazepan-5-yl) (5-methyl-2-(2H-1,2,3-triazol-2-yl)phenyl)methanone], the inhibition at 10 µM on human OX1 receptor worked out at 11%; on human OX2 receptor, 70%.

Broadly, the inhibition is the drop in the measured response relative to a control, in per cent.

For the origin of these results see patent publication US10131653B2, “Heterocyclic compound” (TAKEDA PHARMACEUTICAL COMPANY LIMITED, priority 2015, dated 2018).
